Test results taken from publication PMC5947712, “High‐Throughput Kinetic Analysis for Target‐Directed Covalent Ligand Discovery” (Angewandte Chemie (International Ed. in English), 2018).
“And” between values parts separate entries of the source, which are not always exact repeats. Equal values may be shown once.

Legend:
[1] = target: T1, Cdk2(WT) (Homo sapiens, UniProt P24941); test: In vitro kinase assay (NADH-coupled) of ligand-conjugated pCdk2 with Cyclin A2; assay type: biochemical; design: GST (N, cleaved yes); made in house; host or cells: E. coli Tuner(DE3); details: for Kinase activity ± s.e.m relative to Cdk2(WT): n=3
Protocol: Hs!Cyclin!A2!F!5’![…]!
Hs!Cyclin!A2!R!5’![…]!
Sc!CAK1!R!5’!GAATTCttatgggcttttctaattcttgcaag!
(§1) GSTBCdk2" and" GSTBcyclin" A2:! Harvested! cells! were! resuspended! in! 50! mM! HEPES! buffer! (pH7.5)! containing! 150! mM! NaCl,!
(§2) 10!mM!MgCl2,!2!mM!dithiothreitol!(DTT),!0.5!mg!mLR1!lysozyme,!and!0.01%!Triton!XR100!at!4!˚C!and!incubated!for!30!minutes.!
(§3) After! sonication! and! centrifugation! (40! min,! 16000! g),! the! supernatant! was! incubated! for! 1! h! with! glutathioneRSepharose!
(§4) beads,! washed! with! lysis! buffer! and! the! desired! protein! eluted! with! 10! mM! GSH! (100! mM! Tris,! pH! 8).! After! incubation! the! deR
(§5) sired! protein! was! cleaved! from! the! GST! tag! with! PreScission! protease! (100:1)! at! 4 °C! for! 4! hours,! the! cleaved! GST! tag! was!
(§6) removed! with! glutathioneRSepharose! beads.! Cdk2! was! concentrated! and! then! loaded! onto! a! Superdex! 75! (16/60)! column,!
(§7) eluting! with! 100! mM! phosphate! buffer! containing! 50! mM! DTT.! Purified! Cdk2! was! concentrated! to! 10! mg! mLR1!and! stored! at!–
(§8) 80! ˚C.! Cyclin! A2! was! purified! by! glutathioneRSepharose! affinity! as! described! above! with! the! following! amendments:! 100! mM!
(§9) MgCl2!was! added! after! GST! cleavage! to! minimise! protein! aggregation! and! gel! filtration! was! performed! with! 50! mM! HEPES!
buffer! (pH! 7.5)! containing! 150! mM! NaCl,! 100! mM! MgCl2,! 2! mM! DTT.! ! GSTRCAK1! was! also! purified! using! the! glutathioneR
Sepharose!affinity!workflow,!however!no!protease!or!gel!filtration!steps!were!performed!and!the!enzyme!was!used!crude.!
His6BCdk2:! Cell! lysis! was! performed! as! above! with! the! addition! of! 30! mM! imidiazole! to! the! lysis! buffer.! Following! sonication!
the! supernatant! was! incubated! for! 1! hour! with!nickel! sulfate! charged! NTA! agarose! beads,! washed! with! lysis!buffer! suppleR
mented!with!50!mM!imidiazole!and!then!His6RCdk2!eluted!with!lysis!buffer!containing!500!mM!imidiazole.!After!dialysis!against!
100! mM! phosphate! buffer! (pH! 8)! containing! 1! mM! DTT,! His6RCdk2! was! concentrated! and! loaded! onto! a! Superdex! 75! (16/60)!
column,!eluting!with!100!mM!phosphate!buffer!(pH!8)!without!reducing!agent."
I., Acrylamide, labelling, of, Cdk2, for, crystallography, TdCD, kinase, assays, and, intact%
protein,mass,spectrometry,
Cdk2! (10! µM)! was! reacted! with! acrylamide! ligands! at! 500! µM! in! 100! mM! phosphate! buffer! (pH! 8)! containing! 1%! DMSO,! until!
labelling! reached! completion! (as! monitored! by! fluorescence! quench! assay! and/or! intact! protein! mass! spectrometry).! Excess!
ligand! was! subsequently! removed! by! serial! dilution! and! concentration! (×5)! into! the!appropriate! buffer! using! Amicon! UltraR0.5!
centrifugal!filter!devices!(MW!cutRoff!=!10!kDa).!
J.,Intact%protein,mass,spectrometry, […]

[2] = target: T1, Cdk2(WT); test: qIT thiol consumption assay with Cdk2(WT) (Cys177); assay type: binding; design: made in house; host or cells: E. coli Tuner(DE3); details: for k Cdk2(WT) (pseudo-first-order rate constant): compound 0.5 mM, Cdk2(WT) 5 μM, TCEP-agarose 2 % w/v
[3] = qIT (quantitative irreversible tethering) thiol consumption assay with glutathione; details: compound 0.5 mM, glutathione 5 μM, TCEP-agarose 2 % w/v
Protocol: To measure the kinetics of electrophile‐thiol conjugation we developed quantitative irreversible tethering (qIT), a technique which employs fluorogenic thiol quantification (FTQ) in a high‐throughput thiol consumption assay (Figure 1 a). […] We solved this problem using an immobilized reducing agent (TCEP‐agarose, 2 % w/v), allowing facile separation by centrifugation before conducting the FTQ step (Figure 1 b).
The target thiol (5 μM) is reacted with electrophilic fragments (0.5 mM) under pseudo‐first‐order conditions in the presence of TCEP‐agarose (2 % w/v). Reaction progress is followed by discrete measurements of residual target thiol concentration using the fluorogenic probe CPM and rate constants are derived from exponential regression analysis. b) TCEP‐agarose prevents aerobic thiol oxidation. Glutathione solutions were stored ±TCEP‐agarose (2 % w/v).
Electrophiles were individually reacted with glutathione under pseudo‐first‐order conditions in the presence of TCEP‐agarose. […] Fluorescence measurements were normalized against a DMSO control and exponential regressions used to determine rate constants.
ReactionBplate" setup:!Each! well! of! a! 96Rwell! PCR! plate! was! charged! with! 60–100! µL! of! target! thiol! (GSH! or! protein,! 10! µM)!
and! 4%! w/v! TCEPRagarose! beads! in! 100! mM! phosphate! buffer! (pH! 7.5! or! 8)! and! cooled! to! 4! ˚C.! Reactions! were! started! by!
addition! of! an! equal! volume! of! preRcooled! electrophile! solution! (1! mM,! 2%! DMSO)! in! 0.1! M! phosphate! buffer! (final! concentraR
tion:! thiol! =! 5! µM,! electrophile! =! 0.5! mM,! 2%! w/v! TCEPRagarose! beads),! with! a! minimum! of! 4! wells! per! plate! used! as!
DMSO/thiol! only! controls.! After! mixing,! TCEPRagarose! was! pelleted! by! centrifugation! (1,300! rpm,! 1! min)! and! the! plate! incuR
bated!at!4!˚C.,CPM"Quench:! At! a! series! of! time! points!

[4] = target: T1, Cdk2(WT); test: TdCD melting temperature of acrylamide-modified Cdk2; assay type: binding; design: made in house; host or cells: E. coli Tuner(DE3); details: compound-modified Cdk2(WT), n=3
Protocol: as §1, §2, §3, §4, §5, §6, §7, §8, §9
buffer! (pH! 7.5)! containing! 150! mM! NaCl,! 100! mM! MgCl2,! 2! mM! DTT.! ! […]
labelling! reached! completion! (as! monitored! by! fluorescence! quench! assay! and/or! intact! protein! mass! spectrometry).! […]

[5] = Cdk2(WT) completely modified with compound

| SMILES | inhibition of kinase activity [1, 5] | Kinase activity ± s.e.m relative to Cdk2(WT) [1, 5] [%] | k Cdk2(WT) (pseudo-first-order rate constant) [2] [h⁻¹] | REF Cdk2(WT) (rate enhancement factor = k protein/k GSH) [2] | k GSH (pseudo-first-order rate constant) [3] [h⁻¹] | Tm ± s.e.m [4] | inhibition of kinase activity (in words) ([1]; Cdk2(WT) modified with compound) |
| --- | --- | --- | --- | --- | --- | --- | --- |
| C=CC(=O)N1CCN(C(=O)OC(C)(C)C)c2ccccc21 [Acrylamide 1] | about 83% | 16.8±3.1 | 0.204 | 5.0 | 0.041 | 48.95 ± 0.25 ˚C | – |
| C=CC(=O)N1CCN(C(=O)OC)c2ccccc21 [Acrylamide 2] | – | 96.6±5.6 | 0.233 | 2.6 and 2.63 | 0.089 | 50.56 ± 0.24 ˚C | no significant inhibition |
